Experiments:
[1] = molecular target: T1, Acetylcholinesterase (Homo sapiens, UniProt P22303); assay: Inhibition of human erythrocyte AChE using ATCI as substrate preincubated for 30 mins followed by substrate addition measured after 30 mins by Ellman assay
[2] = molecular target: Cholinesterase (Equus caballus, UniProt P81908); assay: Inhibition of equine serum BuChE using BTCI as substrate preincubated for 30 mins followed by substrate addition measured after 30 mins by Ellman assay
[3] = Permeability of the compound at 100 ug/ml incubated for 120 mins by PAMPA; assay type: ADME; conditions: read-out: Peff
[4] = molecular target: T1, Acetylcholinesterase; conditions: at 10 µM
Description: Inhibition of human erythrocyte AChE-induced Abeta (1 to 42) aggregation at 10 uM incubated for 24 hrs by thioflavin-T fluorescence assay

[5] = in vitro; conditions: human
Description: Cytotoxicity against human SH-SY5Y cells assessed as cell viability at 40 uM after 24 hrs by MTT assay

[6] = in vitro; conditions: human; remark: listed apart in the source
Description: Cytotoxicity against human SH-SY5Y cells assessed as cell viability at 80 uM after 24 hrs by MTT assay

Cholinesterase, sequence (P81908 whole entry): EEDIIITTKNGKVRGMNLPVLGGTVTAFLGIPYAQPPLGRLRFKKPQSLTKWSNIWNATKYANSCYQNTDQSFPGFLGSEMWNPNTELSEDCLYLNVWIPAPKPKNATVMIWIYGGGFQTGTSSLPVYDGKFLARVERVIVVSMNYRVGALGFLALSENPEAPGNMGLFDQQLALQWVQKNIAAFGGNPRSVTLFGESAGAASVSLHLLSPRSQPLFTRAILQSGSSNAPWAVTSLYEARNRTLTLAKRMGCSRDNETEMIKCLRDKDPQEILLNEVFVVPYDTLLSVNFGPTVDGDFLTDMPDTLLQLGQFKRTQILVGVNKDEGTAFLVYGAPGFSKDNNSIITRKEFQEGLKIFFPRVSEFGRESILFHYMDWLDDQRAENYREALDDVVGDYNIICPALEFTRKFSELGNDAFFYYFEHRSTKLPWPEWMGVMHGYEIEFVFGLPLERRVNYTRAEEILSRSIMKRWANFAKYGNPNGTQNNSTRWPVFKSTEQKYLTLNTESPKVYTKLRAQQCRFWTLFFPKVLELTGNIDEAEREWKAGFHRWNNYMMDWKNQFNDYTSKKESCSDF
T1 sequence (P22303 whole entry): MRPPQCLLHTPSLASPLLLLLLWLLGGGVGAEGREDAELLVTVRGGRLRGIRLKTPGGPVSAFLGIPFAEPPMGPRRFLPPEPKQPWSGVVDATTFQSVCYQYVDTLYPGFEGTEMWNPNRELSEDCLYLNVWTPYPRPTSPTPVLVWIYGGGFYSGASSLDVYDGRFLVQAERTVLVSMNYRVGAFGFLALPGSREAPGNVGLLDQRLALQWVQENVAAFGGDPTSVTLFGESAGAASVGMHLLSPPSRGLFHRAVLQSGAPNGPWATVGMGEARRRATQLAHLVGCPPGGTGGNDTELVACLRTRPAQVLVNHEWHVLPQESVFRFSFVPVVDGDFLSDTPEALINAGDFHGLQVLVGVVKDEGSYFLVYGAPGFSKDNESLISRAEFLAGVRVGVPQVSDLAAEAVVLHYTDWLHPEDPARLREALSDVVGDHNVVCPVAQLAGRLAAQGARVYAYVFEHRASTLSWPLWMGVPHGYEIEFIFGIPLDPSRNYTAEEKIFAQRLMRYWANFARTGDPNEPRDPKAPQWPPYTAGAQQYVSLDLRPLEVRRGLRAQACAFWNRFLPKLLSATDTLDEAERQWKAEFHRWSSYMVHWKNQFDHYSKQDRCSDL

SMILES	IC50 [1] [nM]	IC50 [2] [nM]	Papp at 2 h, 100 ug/ml [3] [×10⁻⁶ cm/s]	inhibition [4] [%]	viability at 24 h, 40 µM ([5]; SH-SY5Y cells) [%]	viability at 24 h, 80 µM ([6]; SH-SY5Y cells) [%]	viability at 24 h, 40 µM ([5]; sh-sy5y) [%]	viability at 24 h, 80 µM ([6]; sh-sy5y) [%]
COc1ccc(-c2nc(NCC3CCN(Cc4ccccc4C(F)(F)F)CC3)sc2-c2ccc(OC)cc2)cc1	690	8010	8.4	20.6	94.2	90.1	–	–
COc1ccc(-c2nc(NC(=O)C3CCN(Cc4ccc(F)cc4C(F)(F)F)CC3)sc2-c2ccc(OC)cc2)cc1	1230	1780	–	–	–	–	–	–
COc1ccc(-c2nc(NCC3CCN(Cc4ccccc4C)CC3)sc2-c2ccc(OC)cc2)cc1	590	2210	12.3	25.6	91.6	87.2	–	–
Cc1ccc(-c2nc(NCC3CCN(Cc4ccccc4C(F)(F)F)CC3)sc2-c2ccc(C)cc2)cc1	400	2200	12.8	26.4	93.5	91.7	–	–
COc1ccc(-c2nc(NC(=O)C3CCN(Cc4ccccc4C)CC3)sc2-c2ccc(OC)cc2)cc1	1340	1850	–	–	–	–	–	–
Fc1ccc(CN2CCC(Nc3nc(-c4ccc(Cl)cc4)c(-c4ccc(Cl)cc4)s3)CC2)c(Cl)c1	370	1970	8.4	27.5	94.2	92.5	–	–
Cc1ccc(-c2nc(NC(=O)C3CCN(Cc4ccc(C#N)cc4)CC3)sc2-c2ccc(C)cc2)cc1	1280	5320	–	–	–	–	–	–
Cc1ccccc1CN1CCC(C(=O)Nc2nc(-c3ccc(Cl)cc3)c(-c3ccc(Cl)cc3)s2)CC1	1100	1040	–	–	–	–	–	–
COc1ccc(-c2nc(NC(=O)C3CCN(Cc4ccccc4C#N)CC3)sc2-c2ccc(OC)cc2)cc1	2800	3580	–	–	–	–	–	–
Cc1ccc(-c2nc(NC(=O)C3CCN(Cc4c(F)cccc4Cl)CC3)sc2-c2ccc(C)cc2)cc1	2880	2770	–	–	–	–	–	–
COc1ccc(-c2nc(NCC3CCN(Cc4c(F)cccc4Cl)CC3)sc2-c2ccc(OC)cc2)cc1	360	2150	12.2	27.2	94.2	87.1	–	–
COc1ccc(-c2nc(NC3CCN(Cc4ccc(C(F)(F)F)cc4)CC3)sc2-c2ccc(OC)cc2)cc1	750	1680	8.6	18.9	94.5	90.4	–	–
Cc1ccc(-c2nc(NC3CCN(Cc4ccccc4)CC3)sc2-c2ccc(C)cc2)cc1	1280	3590	–	–	–	–	–	–
COc1ccc(-c2nc(NC(=O)C3CCN(Cc4cc(F)cc(F)c4)CC3)sc2-c2ccc(OC)cc2)cc1	2450	> 10000	–	–	–	–	–	–
Cc1ccc(-c2nc(NC(=O)C3CCN(Cc4cccc(F)c4)CC3)sc2-c2ccc(C)cc2)cc1	> 10000	1970	–	–	–	–	–	–
COc1ccc(-c2nc(NC(=O)C3CCN(Cc4cccc(F)c4)CC3)sc2-c2ccc(OC)cc2)cc1	570	1540	12.5	21.2	94	90.3	–	–
Cc1ccc(-c2nc(NCC3CCN(Cc4ccccc4C)CC3)sc2-c2ccc(C)cc2)cc1	500	2510	10.6	16.2	91.4	90.1	–	–
Cc1ccc(CN2CCC(Nc3nc(-c4ccc(Cl)cc4)c(-c4ccc(Cl)cc4)s3)CC2)cc1	3190	> 10000	–	–	–	–	–	–
COc1cc2c(cc1OC)C(=O)C(CC1CCN(Cc3ccccc3)CC1)C2 (configuration not stated) [DONEPEZIL]	–	–	–	–	–	–	96.9	92.3
Cc1ccc(-c2nc(NC(=O)C3CCN(Cc4ccccc4C)CC3)sc2-c2ccc(C)cc2)cc1	> 10000	1500	–	–	–	–	–	–
N#Cc1ccccc1CN1CCC(C(=O)Nc2nc(-c3ccc(Cl)cc3)c(-c3ccc(Cl)cc3)s2)CC1	1770	1590	–	–	–	–	–	–
COc1ccc(-c2nc(NC(=O)C3CCN(Cc4c(F)cccc4Cl)CC3)sc2-c2ccc(OC)cc2)cc1	410	1570	8.2	16.6	92.9	91.6	–	–
N#Cc1ccc(CN2CCC(Nc3nc(-c4ccc(Cl)cc4)c(-c4ccc(Cl)cc4)s3)CC2)cc1	1020	1720	–	–	–	–	–	–

SMILES	IC50 [1] [nM]	IC50 [2] [nM]	Papp at 2 h, 100 ug/ml [3] [×10⁻⁶ cm/s]	inhibition [4] [%]	viability at 24 h, 40 µM ([5]; SH-SY5Y cells) [%]	viability at 24 h, 80 µM ([6]; SH-SY5Y cells) [%]	viability at 24 h, 40 µM ([5]; sh-sy5y) [%]	viability at 24 h, 80 µM ([6]; sh-sy5y) [%]
Cc1ccc(CN2CCC(Nc3nc(-c4ccc(C)cc4)c(-c4ccc(C)cc4)s3)CC2)cc1	1090	6030	–	–	–	–	–	–
Cc1ccc(-c2nc(NC(=O)C3CCN(Cc4cc(F)cc(F)c4)CC3)sc2-c2ccc(C)cc2)cc1	2500	3510	–	–	–	–	–	–
O=C(Nc1nc(-c2ccc(Cl)cc2)c(-c2ccc(Cl)cc2)s1)C1CCN(Cc2ccccc2C(F)(F)F)CC1	2770	3360	–	–	–	–	–	–
O=C(Nc1nc(-c2ccc(Cl)cc2)c(-c2ccc(Cl)cc2)s1)C1CCN(Cc2cc(F)cc(F)c2)CC1	640	3030	8.8	12	95.6	92.8	–	–
Fc1ccc(CN2CCC(CNc3nc(-c4ccc(Cl)cc4)c(-c4ccc(Cl)cc4)s3)CC2)c(C(F)(F)F)c1	1240	3300	–	–	–	–	–	–
Cc1ccc(-c2nc(NC(=O)C3CCN(Cc4ccc([N+](=O)[O-])cc4)CC3)sc2-c2ccc(C)cc2)cc1	2320	> 10000	–	–	–	–	–	–
Cc1ccc(-c2nc(NC(=O)C3CCN(Cc4ccc(F)cc4Cl)CC3)sc2-c2ccc(C)cc2)cc1	> 10000	1600	–	–	–	–	–	–
Cc1ccc(-c2nc(NC(=O)C3CCN(Cc4ccccc4C(F)(F)F)CC3)sc2-c2ccc(C)cc2)cc1	7570	1880	–	–	–	–	–	–
Cc1ccccc1CN1CCC(CNc2nc(-c3ccc(Cl)cc3)c(-c3ccc(Cl)cc3)s2)CC1	870	1430	8.8	23.3	95.4	90.9	–	–
COc1ccc(-c2nc(NC(=O)C3CCN(Cc4ccc(F)cc4)CC3)sc2-c2ccc(OC)cc2)cc1	1160	1730	–	–	–	–	–	–
O=C(Nc1nc(-c2ccc(Cl)cc2)c(-c2ccc(Cl)cc2)s1)C1CCN(Cc2ccc(F)cc2Cl)CC1	3700	> 10000	–	–	–	–	–	–
COc1ccc(CN2CCC(Nc3nc(-c4ccc(Cl)cc4)c(-c4ccc(Cl)cc4)s3)CC2)cc1	1120	1570	–	–	–	–	–	–
Cc1ccc(-c2nc(NC(=O)C3CCN(Cc4ccc(C(F)(F)F)cc4)CC3)sc2-c2ccc(C)cc2)cc1	> 10000	2780	–	–	–	–	–	–
Fc1cc(F)cc(CN2CCC(CNc3nc(-c4ccc(Cl)cc4)c(-c4ccc(Cl)cc4)s3)CC2)c1	630	820	12.5	19.4	92.4	91.7	–	–
COc1ccc(-c2nc(NC(=O)C3CCN(Cc4ccccc4C(F)(F)F)CC3)sc2-c2ccc(OC)cc2)cc1	680	1920	12.3	14.5	92.4	93.1	–	–
Fc1ccc(CN2CCC(CNc3nc(-c4ccc(Cl)cc4)c(-c4ccc(Cl)cc4)s3)CC2)c(Cl)c1	520	740	13.2	15	92.7	88.9	–	–
O=C(Nc1nc(-c2ccc(Cl)cc2)c(-c2ccc(Cl)cc2)s1)C1CCN(Cc2ccc(OC(F)(F)F)cc2)CC1	1380	2180	–	–	–	–	–	–
Cc1ccc(-c2nc(NCC3CCN(Cc4ccc(F)cc4)CC3)sc2-c2ccc(C)cc2)cc1	370	1950	10.1	25.8	91.8	89.7	–	–
Clc1ccc(-c2nc(NC3CCN(Cc4ccccc4)CC3)sc2-c2ccc(Cl)cc2)cc1	1380	3300	–	–	–	–	–	–
O=C(Nc1nc(-c2ccc(Cl)cc2)c(-c2ccc(Cl)cc2)s1)C1CCN(Cc2cccc(F)c2)CC1	650	720	15.9	18.8	93.6	91.1	–	–
COc1ccc(CN2CCC(Nc3nc(-c4ccc(OC)cc4)c(-c4ccc(OC)cc4)s3)CC2)cc1	770	2530	10.3	11.4	92.1	89.5	–	–
COc1ccc(-c2nc(NC3CCN(Cc4ccc(C)cc4)CC3)sc2-c2ccc(OC)cc2)cc1	830	2250	9.6	19.2	95.4	89.5	–	–

Source: ChEMBL document CHEMBL4477206, “Benzylpiperidine-Linked Diarylthiazoles as Potential Anti-Alzheimer's Agents: Synthesis and Biological Evaluation” (J Med Chem, 2016)
